Test systems include SNB-75; SN12C; CCRF-CEM; SF-268; SNB-19; U-251; HCC 2998; NCI-H23; HT-29; HOP-62; SK-OV-3; NCI-H522; CAKI-1; HL-60; MOLT-4; Malme-3M; OVCAR-8; UACC-62.
Holding throughout (assay): NCI-60 cell line screen, 48 h

Each structure is given as a SMILES string.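 Method: 48-hour compound exposure of cells in 96-well plates, five concentrations, linear interpolation of endpoints. GI50 is the concentration that inhibits growth by half.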 The source made the active and inactive calls. Rule as the data show it: active = GI50 up to about 1.1 µM and inactive = higher.

As for `Cc1ccc(C(=O)CC2=Nc3nnc(CCCCCCCc4nnc5n4C(=O)C(CC(=O)c4ccc(C)cc4)=N5)n3C2=O)cc1`, the GI50 was 24.2 µM (inactive) in the test with SNB-75; > 100 µM (inactive) in the test with SN12C; > 100 µM (inactive) in the test with CCRF-CEM; > 100 µM (inactive) in the test on SF-268; > 100 µM (inactive) in the test on SNB-19; > 100 µM (inactive) in the test with U-251. Also, the GI50 in the test with HCC 2998, with NCI-H23, with HT-29, in the test on HOP-62, in the test with SK-OV-3 and with NCI-H522 was > 100 µM (inactive) throughout. Besides, the GI50 with CAKI-1, in the test with HL-60, with MOLT-4, in the test on Malme-3M, in the test with OVCAR-8 and in the test on UACC-62 was > 100 µM (inactive) each time.
With `CCOC(=O)[C@H]1Nc2ccc(Cl)cc2[C@H]2OCC[C@@H]12`, the GI50 with SNB-75, with SN12C, in the test with CCRF-CEM, with SF-268, with SNB-19 and in the test with U-251 was > 100 µM (inactive) each time. The GI50 in the test with HCC 2998, with NCI-H23, in the test with HT-29, in the test on HOP-62, with SK-OV-3 and in the test on NCI-H522 was > 100 µM (inactive) throughout. Moreover, the GI50 in the test with CAKI-1, in the test on HL-60, in the test with MOLT-4, with Malme-3M, in the test on OVCAR-8 and in the test with UACC-62 was > 100 µM (inactive) in each case.
Turning to `COC(=O)C(Cc1nc2ccccc2nc1O)C(=O)C(=O)Nc1ccc(F)cc1` (configuration not stated), the GI50 was 28.8 µM (inactive) in the test on SNB-75; 40.9 µM (inactive) in the test on SN12C; 27.3 µM (inactive) with CCRF-CEM; 13.1 µM (inactive) with SF-268; > 100 µM (inactive) in the test with SNB-19; > 100 µM (inactive) in the test with HCC 2998. The GI50 was 34 µM (inactive) with NCI-H23; 42.6 µM (inactive) in the test on HT-29; > 100 µM (inactive) in the test with HOP-62; > 100 µM (inactive) in the test with SK-OV-3; 10.3 µM (inactive) in the test with NCI-H522; > 100 µM (inactive) in the test on CAKI-1. Also, the GI50 was 45.5 µM (inactive) in the test on HL-60; 58.6 µM (inactive) in the test on MOLT-4; 28.8 µM (inactive) with Malme-3M; 20 µM (inactive) with OVCAR-8; 24.2 µM (inactive) with UACC-62.
For `CC1(c2ccc(Cl)cc2)C2C(=O)NC(=O)C1C(=O)NC2=O` (configuration not stated), the GI50 in the test with SNB-75, in the test on SN12C, in the test on CCRF-CEM, with SF-268, in the test on SNB-19 and in the test on HCC 2998 was > 100 µM (inactive) each time. In addition, the GI50 in the test on NCI-H23, with HT-29, in the test on HOP-62, in the test on SK-OV-3, in the test on NCI-H522 and in the test with CAKI-1 was > 100 µM (inactive) in each case. Besides, the GI50 in the test with HL-60, in the test on MOLT-4, in the test on Malme-3M, in the test on OVCAR-8 and with UACC-62 was > 100 µM (inactive) throughout.
As to `CC(C)=CC(=O)OC1C2C(C)C(=O)OC2C(O)C(C)C2C=CC(=O)C21C` (configuration not stated), the GI50 in the test with SNB-75 was 2.72 µM (inactive); in the test with SN12C, 3.69 µM (inactive); in the test on CCRF-CEM, 0.802 µM (active); in the test on SF-268, 1.57 µM (inactive); with SNB-19 it was 7.38 µM (inactive); with U-251, 4.06 µM (inactive). Also, the GI50 in the test with HCC 2998 is 5.47 µM (inactive); in the test with NCI-H23 it was 2.71 µM (inactive); in the test on HT-29, 3.21 µM (inactive); in the test on HOP-62, 8.02 µM (inactive); with SK-OV-3, 7.23 µM (inactive); with NCI-H522 it was 0.569 µM (active). For the same compound, the GI50 with CAKI-1 is 3.24 µM (inactive); in the test on HL-60 it was 0.826 µM (active); in the test with MOLT-4, 1.23 µM (inactive); with Malme-3M it was 3.58 µM (inactive); in the test on OVCAR-8, 1.79 µM (inactive); with UACC-62, 1.47 µM (inactive).
For `CC(C)CCCCCCCCCCCCC(=O)NCC(=O)NC1C(C)OC(Nc2ncnc3c2ncn3C)C(O)C1O` (configuration not stated), the GI50 in the test with SNB-75 was 2.33 µM (inactive); with SN12C, 3.5 µM (inactive); in the test with CCRF-CEM, > 100 µM (inactive); with SF-268, 3.21 µM (inactive); in the test on SNB-19, 2.88 µM (inactive); in the test with U-251 it was 1.21 µM (inactive). Besides, the GI50 in the test on HCC 2998 is 1.28 µM (inactive); in the test with NCI-H23, 9.42 µM (inactive); in the test with HT-29 it was 4.2 µM (inactive); in the test with HOP-62, 2.21 µM (inactive); in the test with SK-OV-3 it was 3.1 µM (inactive); in the test with NCI-H522, 6.7 µM (inactive). In addition, the GI50 with CAKI-1 is 0.805 µM (active); in the test with HL-60, 0.485 µM (active); with MOLT-4, > 100 µM (inactive); in the test with Malme-3M it was 2.32 µM (inactive); in the test on OVCAR-8, 4.27 µM (inactive); in the test with UACC-62 it was 3.18 µM (inactive).
Turning to `COc1ccc(/C=C/C(=N\NC(=O)c2ccccc2)c2sc(Nc3ccc([N+](=O)[O-])cc3)nc2C)cc1OC`, the GI50 in the test on SNB-75 is 5.57 µM (inactive); in the test with SN12C it was 13.9 µM (inactive); in the test on CCRF-CEM, 2.34 µM (inactive); in the test on SF-268, 13.2 µM (inactive); in the test on SNB-19, 12.4 µM (inactive); with U-251, 5.3 µM (inactive). In addition, the GI50 in the test on HCC 2998 was 29.6 µM (inactive); in the test with NCI-H23, > 10 µM (inactive); in the test on HT-29, 17 µM (inactive); with HOP-62 it was 18.2 µM (inactive); in the test on SK-OV-3, 45.8 µM (inactive); with NCI-H522, 4.24 µM (inactive). Moreover, the GI50 is 17.7 µM (inactive) with CAKI-1; 2.62 µM (inactive) with HL-60; 2.77 µM (inactive) in the test with MOLT-4; 19.2 µM (inactive) in the test on Malme-3M; 9.57 µM (inactive) in the test with OVCAR-8; 2.75 µM (inactive) in the test on UACC-62.
Turning to `Cn1c(=O)n(CC2CS2)c2ccccc21` (configuration not stated), the GI50 with SNB-75 is > 100 µM (inactive); with SN12C it was > 100 µM (inactive); in the test on CCRF-CEM it was 70 µM (inactive); with SF-268 it was > 100 µM (inactive); in the test on SNB-19 it was > 100 µM (inactive); in the test on HCC 2998, > 100 µM (inactive). Besides, the GI50 in the test on HT-29 is > 100 µM (inactive); in the test on HOP-62 it was > 100 µM (inactive); in the test on SK-OV-3, > 100 µM (inactive); with NCI-H522, > 100 µM (inactive); in the test with CAKI-1, 44.5 µM (inactive); in the test on HL-60 it was 71.6 µM (inactive). Also, the GI50 in the test with MOLT-4 was 88.1 µM (inactive); in the test on Malme-3M, > 100 µM (inactive); in the test on OVCAR-8 it was > 10 µM (inactive); in the test with UACC-62, > 100 µM (inactive).
On to `COc1ccc(C2C(Cl)C(=O)N2NC(=O)c2ccc(N)cc2)cc1` (configuration not stated), for which the GI50 with SNB-75 is > 100 µM (inactive); with SN12C it was > 100 µM (inactive); with CCRF-CEM it was 93.5 µM (inactive); in the test with SNB-19, > 100 µM (inactive); in the test with U-251, > 100 µM (inactive); in the test with HCC 2998, > 100 µM (inactive). Further, the GI50 in the test with NCI-H23, with HT-29, with HOP-62, in the test on SK-OV-3, with NCI-H522 and in the test with CAKI-1 was > 100 µM (inactive) each time. Also, the GI50 with HL-60, in the test on MOLT-4, in the test with Malme-3M, with OVCAR-8 and in the test with UACC-62 was > 100 µM (inactive) in each case.
On to `COc1ccc(C2Oc3cc(OC)c(O)cc3[C@@H]2C)cc1` (some centres not stated), for which the GI50 is 3.08 µM (inactive) with SNB-75; 15.5 µM (inactive) in the test with CCRF-CEM; 48.8 µM (inactive) with SF-268; 1.87 µM (inactive) with SNB-19; > 100 µM (inactive) in the test on U-251; 57.5 µM (inactive) with HCC 2998. Also, the GI50 in the test on NCI-H23 is 23.6 µM (inactive); in the test on HT-29 it was 40.7 µM (inactive); in the test with HOP-62, > 100 µM (inactive); in the test on SK-OV-3, > 100 µM (inactive); in the test with NCI-H522, 16.5 µM (inactive); with CAKI-1 it was 29.3 µM (inactive). Besides, the GI50 with HL-60 is 18.2 µM (inactive); in the test on MOLT-4, 14.9 µM (inactive); in the test on Malme-3M, 78 µM (inactive); with OVCAR-8, 23.2 µM (inactive); in the test on UACC-62, > 10 µM (inactive).
In the case of `CCOC(OC1=C(C#N)CCCC1)C(CC)[Se]c1ccccc1[N+](=O)[O-]` (configuration not stated), the GI50 was 21.9 µM (inactive) with SNB-75; 19.6 µM (inactive) in the test with SN12C; 20.6 µM (inactive) in the test with CCRF-CEM; 23 µM (inactive) in the test with SF-268; 29 µM (inactive) in the test with SNB-19; 16.6 µM (inactive) in the test on U-251. The GI50 with HCC 2998 is 17.7 µM (inactive); with NCI-H23 it was 16.7 µM (inactive); in the test with HT-29, 16.8 µM (inactive); with HOP-62, 32.1 µM (inactive); with SK-OV-3 it was 63.8 µM (inactive); with NCI-H522, 16.3 µM (inactive). The GI50 with CAKI-1 was > 100 µM (inactive); in the test on HL-60, 17.1 µM (inactive); with MOLT-4, 25.6 µM (inactive); in the test with Malme-3M, 22.8 µM (inactive); with OVCAR-8, 24 µM (inactive); with UACC-62, 22 µM (inactive).
